Assay results as given in paper PMC7915666, “Antitrypanosomal and Antileishmanial Activity of Chalcones and Flavanones from Polygonum salicifolium” (Pathogens, 2021).
In brackets after ≈: the same amount, converted by molar mass. Like-named read-outs stand apart in the source and are kept apart here.

Key:
HFF cells = assay: Drug toxicity assay in human foreskin fibroblast (HFF) cells, resazurin; type: cell-based; conditions: EC50 (HFF)/EC50(427-WT)
[1] = as above; type: cell-based; conditions: HFF (human foreskin fibroblast) cells; human foreskin fibroblasts; highest concentration tested 100 µg/mL; mean ± SEM, n>=3
T. b. brucei B48 = assay: Alamar Blue (resazurin) assay, multi-drug resistant T. b. brucei B48; type: cell-based; conditions: Trypanosoma brucei, read-out: T. b. brucei EC50, B48
Method: (§1) The four compounds were tested for activity against the following three kinetoplastid pathogens: Trypanosoma brucei brucei, Trypanosoma congolense, and Leishmania mexicana. For the two Trypanosoma species, the compounds were tested in parallel against strains that were resistant to the most common trypanocides. T. b. brucei B48 is highly resistant to the entire classes of diamidines and melaminophenyl arsenicals, and T. congolense DA-Res was rendered resistant to diminazene aceturate by means of in vitro exposure to the drug. […] For the drug-resistant trypanosome strains, highly significant resistance to diamidines was confirmed, but there was no cross-resistance with the chalcones and flavanones. […] While this dataset of two chalcones is self-evidently insufficient for a structure–activity relationship (SAR) analysis, it is clear that the position of the hydroxy and methoxy groups on ring A (Figure 1) influenced the trypanocidal activity without increasing the toxicity.

T. b. brucei 427-WT = assay: Alamar Blue (resazurin) assay, T. b. brucei Lister 427 wild-type bloodstream forms; conditions: for EC50: Trypanosoma brucei; for activity against Trypanosoma species (in words): Trypanosoma species (T. b. brucei and T. congolense)
T. congolense DA-Res = type: cell-based, Trypanosoma congolense; conditions: for EC50: Trypanosoma congolense, read-out: T. congolense EC50, DA-Res
Method: as §1

T. congolense IL3000-WT = assay: Alamar Blue (resazurin) assay, T. congolense IL3000 wild-type bloodstream forms
[2] = 72 h, read-out: T. b. brucei EC50, 427-WT, bloodstream forms, 48 h + 24 h resazurin, mean ± SEM, n>=3

SMILES | SI (Tbb), selectivity index = EC50(HFF)/EC50(Tbb) (HFF cells) | EC50 at 54 h [1] [µM] | EC50 (T. b. brucei B48) [µM] | EC50 (T. b. brucei 427-WT; [2]) [µM] | activity against Trypanosoma species (in words) (T. b. brucei 427-WT) | EC50 (T. congolense DA-Res) [µM] | fold less activity than compound 1 against T. congolense (T. congolense IL3000-WT; relative to compound 1) [fold] | fold less activity than compound 1 against T. b. brucei (T. b. brucei 427-WT; relative to compound 1) | activity against T. congolense (in words) (T. congolense IL3000-WT) | EC50 (T. congolense IL3000-WT; Trypanosoma congolense, read-out: EC50 against T. congolense) [µg/mL] | EC50 (T. b. brucei 427-WT; read-out: EC50 against Trypanosoma brucei brucei, standard resazurin-based assay) [µg/mL] | resistance of clone 6C3 versus IL3000 (T. congolense DA-Res; line adapted in vitro to diminazene aceturate)
COc1cc(OC)c2c(c1)OC(c1ccccc1)CC2=O (stereo not drawn) [Compound 3, 5,7-dimethoxyflavanone] | >11.7 | > 350 | 30.3 ± 1.1 | 30.1 ± 0.95 | moderate activity | 106 ± 15 | – | – | – | – | – | –
N=C(N)c1ccc(OCCCCCOc2ccc(C(=N)N)cc2)cc1 [Pentamidine, reference compound] | – | – | 0.72 ± 0.03 | 0.0034 ± 0.0004 | – | – | – | – | – | – | – | –
COc1cc(O)c(OC)c2c1C(=O)CC(c1ccccc1)O2 (stereo not drawn) [Compound 4, 5,8-dimethoxy-7-hydroxyflavanone] | >6.0 | > 330 | 51.9 ± 1.6 | 55.3 ± 1.6 | moderate activity | 48 ± 6.2 | – | – | – | – | – | –
COc1cc(O)c(OC)c(O)c1C(=O)/C=C/c1ccccc1 [Compound 2, 2′,5′-dimethoxy-4′,6′-dihydroxychalcone] | >22.8 | > 330 | 13.9 ± 0.6 | 14.6 ± 0.8 | – | 28.6 ± 1.4 | ~4 | about 8 fold | – | – | – | –
COc1cc(O)c(C(=O)/C=C/c2ccccc2)c(OC)c1 [Compound 1, 2′,4′-dimethoxy-6′-hydroxychalcone] | >172 | > 350 | 1.8 | ~2 | – | 8.8 ± 0.28 | – | – | moderate activity | 2.5 (≈ 8.79 µM) | 0.58 | –
N=C(N)c1ccc(/N=N/Nc2ccc(C(=N)N)cc2)cc1 [Diminazene, diminazene aceturate, reference compound] | – | – | 2.4 ± 0.36 | 0.15 ± 0.01 | – | 1.43 ± 0.03 | – | – | – | – | – | ~ 10 fold
